Laboratory results as given in patent EP4703356A1, “SALT OF PIPERIDYLINDOLE COMPOUND AND PREPARATION METHOD THEREFOR” (Shanghai Hansoh Biomedical Co., Ltd., priority 2023, dated 2024).
Read-outs that look alike come from different tables or passages of the source.

Key:
[1] = target: T1, Recombinant human factor B catalytic domain (Homo sapiens, UniProt P00751); test: Target residence time of factor B inhibitors by surface plasmon resonance (SPR); settings: for t1/2: binding half-life, t1/2 = ln2/koff; for residence time: read-out: Residence time (s)
T1 sequence (P00751 470-764): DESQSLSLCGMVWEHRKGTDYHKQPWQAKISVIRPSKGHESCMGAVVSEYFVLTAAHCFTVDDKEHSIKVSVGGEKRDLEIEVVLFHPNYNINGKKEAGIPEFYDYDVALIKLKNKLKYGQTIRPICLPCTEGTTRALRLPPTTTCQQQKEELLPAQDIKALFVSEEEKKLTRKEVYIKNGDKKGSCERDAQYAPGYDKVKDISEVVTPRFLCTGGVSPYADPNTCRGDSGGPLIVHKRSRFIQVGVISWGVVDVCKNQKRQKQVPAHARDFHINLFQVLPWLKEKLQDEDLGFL
From the text: PBS-P+buffer 10X (Cytiva, CAT. No. 28995084) • 3. Series S Sensor Chip NTA (Cytiva, CAT# BR100532) • 4. Amine coupling kit (Cytiva, CAT#BR100050) • 5. […] Greiner 96-well polypropylene plates (Sigma Aldrich, CAT# M7310-100EA) • 7. […] Biacore 8k (Cytiva)
Before docking the Cytiva NTA chip, the Biacore 8k instrument was pretreated with 1X PBS-P + buffer. […] The protein ligand was further crosslinked to the sensor chip surface via an amine coupling kit. Immobilization and binding experiments were performed at room temperature.
After buffer exchanging to 1X PBS-P + buffer containing 2% (v/v) dimethyl sulfoxide, a pre-run was performed at a flow rate of 30 µl/min for at least 30 minutes to obtain a stable surface. […] The flow rate was 30 µl/min. Before the injection of the compound, a blank test was performed under the same conditions.
The SPR sensorgrams were analysed using Biacore Insight Evaluation software with the double-referencing method. The resulting curves were fitted to a 1 : 1 binding model. […] The kinetic constants (kon, koff and KD) obtained from replicate measurements were averaged. The binding half-life (t1/2) for the 1 : 1 binding model and the two-state reaction model was calculated from the dissociation constant koff, using the formula t1/2 = ln2/koff.

[2] = target: T1, Recombinant human factor B catalytic domain; test: TR-FRET factor B binding assay
Procedure: 5X kinase buffer A (Thermo Fisher, CAT#PV3189) • 3. LANCE Eu-W1024 anti-6xHis antibody (PerkinElmer, CAT#AD0401) • 4. […] Dimethyl sulfoxide (Thermo Fisher Scientific) • 6. Compound - 10 mM stock in DMSO • 7. Victor Nivo multi-mode microplate reader (PerkinElmer) • 8.
The binding affinity of each test compound to factor B was determined using the time-resolved fluorescence resonance energy transfer (TR-FRET) technology. 10 nM recombinant his-tagged factor B catalytic domain, different concentrations of inhibitors, 4 nM LANCE Eu-W1024 anti-6xHis antibody and 100 nM TR-FRET_tool2 tracer were incubated in 1X kinase buffer A for 1 hour. Measurements were performed with a reaction volume of 15 µL by adding 5 µL of the test compound, followed by the addition of 5 µL of a factor B/antibody mixture and 5 µL of the tracer to a white opaque 384-well assay plate.

[3] = Salt form screening (natural evaporation and reactive crystallisation); assay type: physicochemical; set-up: key to PLM/XRPD or slurry solvent: "√" indicates the presence of birefringence phenomenon; "×" indicates the absence of birefringence phenomenon; settings: for PLM/XRPD or slurry solvent: 1:1; for Characterization result: reactive crystallisation, Ethyl acetate, 1:1, stirred room temperature about 24 hours
Procedure: Salt form screening experiments were conducted via the solvent evaporation method. About 10 mg of the free base of Example 3 was weighed into a 2 mL glass vial and dissolved in 100 µL of an organic solvent. A solution of the counterion acid in methanol was added dropwise at a molar ratio of 1:1. The resulting clear solution was allowed to evaporate at room temperature. The obtained solid was first characterised by PLM. If no birefringence was observed, the solids were slurried by adding a solvent. If birefringence was observed, the solids were further characterised by XRPD. Compounds with high crystallinity were selected for characterization by DSC and TGA.
Approximately 10 mg of the free base compound of Example 3 was weighed into a 2 mL glass vial and dissolved in 100 µL of an organic solvent. 22 µL of a solution of the acid in ethyl acetate was slowly added dropwise at a molar ratio of 1 : 1 under stirring. The resulting clear solution was stirred at room temperature for approximately 24 hours. The resulting solid was dried in vacuo at 40°C and characterised by XRPD, DSC and TGA.

[4] = Pharmacokinetic study in rat eyes; assay type: in vivo, brown Norway rats; settings: Brown Norway, 2 mg/kg, 2 mpk PO; for half-life: in vivo
Procedure: Three-month-old brown Norway rats were orally gavaged with the example compound as a suspension in 2 equivalents of 1 N HCl + 30% PEG300 + 50% (20% Cremophor EL aqueous solution). At 0.25, 0.5, 1, 6, and 24 hours post-dosing, ocular tissues and plasma were collected from both eyes of the rats at respective time points. The ocular tissues collected comprised retina and the posterior eyecup (RPE/choroid and posterior sclera). Tissues were diluted with phosphate-buffered saline containing 10% acetonitrile, followed by homogenization and centrifugation prior to analysis. At each time point, test article concentrations in plasma and eye homogenate supernatants were measured in four individual retinal samples, four individual posterior eyecup samples and two individual plasma samples by using HPLC-MS/MS. Chromatographic separation was performed on a Waters BEH C18 column (2.1 × 50 mm, 1.7 µm) (MAC-MOD Analytical, Chadds-Ford, PA) with a gradient elution method using water and acetonitrile, both containing 0.025% formic acid-1 M NH4OAc. Mass spectrometry measurements in positive electrospray ionization were performed to quantify mass transitions using [M+H]+ as the precursor ion on an API6500 triple quadrupole mass spectrograph (Sciex, Framingham, MA). The relevant pharmacokinetic parameters were estimated using the non-compartmental method in WinNonlin (Enterprise, version 8.2). Table 3: Rat PK study results (2 mpk PO)

AP complement activation = test: In vivo assessment of AP complement functional activity in mice (LPS-induced, plasma C3b/iC3b/C3c ELISA); set-up: species or system C57BL/6 mice; settings: LPS 2.5 mg/kg i.p. 7.5 hours before end, compound 20 mg/kg oral 20 hours before end
Procedure: 20 hours before the end of the study, female C57BL/6 mice were orally gavaged with the formulation of compound of Example 3 (20 mg/kg, 0.5% (w/v) methylcellulose, 0.5% (v/v) Tween 80). To activate the complement pathway, lipopolysaccharide (LPS) from Salmonella typhimurium (Sigma) was injected intraperitoneally (2.5 mg/kg) 7.5 hours before the end of the study. Control mice received intraperitoneal injections of normal saline and oral gavage administration of vehicles. At the end of the study, plasma samples were collected from the mice. AP complement activation was assessed by measuring plasma C3 cleavage products, C3b/iC3b/C3c, using an ELISA method with rat anti-mouse C3b/iC3b/C3c monoclonal antibodies (clone 2/11, Hycult Biotech, 0.1 µg/well), and a goat anti-rat IgG (whole molecule)-peroxidase (Sigma) diluted in TBST (TBS/0.05% Tween 20). Table 4: Plasma C3b/iC3b/C3c following treatment

[5] = system: alternative complement pathway (AP); test: Assessment of PD inhibition in rat plasma (ex vivo AP ELISA, MAC deposition on LPS, serum after oral dosing); set-up: species or system Sprague-Dawley rats; settings: over 24 hours; for inhibition at 2 mg/kg: Rattus norvegicus, rats, oral 2 mg/kg, AP deposition in 50% serum, read-out: Serum PD inhibition (%) over 24 hours (2 mpk)
Procedure: Male Sprague-Dawley rats (n = 3) were orally administered with vehicles (0.5% (w/v) methylcellulose, 0.5% (v/v) Tween 80), compound Iptacopan, or example compound formulations (in 0.5% (w/v) methylcellulose, 0.5% (v/v) Tween 80) at a dose of 2 mg/kg. Rat serum samples were collected at 0.25, 0.5, 1, 2, 4, 6, 8, and 24 hours post-dosing, and stored at -80°C. […] The coated plates were washed with GVB buffer (Complement technology) containing 5 mM MgCl2 and 10 mM EGTA (blocking both classical and lectin pathways). The collected serum samples were diluted by adding an equal volume of GVB buffer containing 10 mM MgCl2 and 20 mM EGTA. For negative controls, serum was diluted with GVB buffer containing 40 mM EDTA (blocking all complement pathways). Aliquots (50 ul) of 50% serum samples were added to the LPS-coated wells. The reaction plate was incubated at 37°C for 20 minutes (rat serum). […] Baseline (EDTA-treated serum) and maximum signal (EGTA-treated serum from vehicle-treated rats) were used to generate a percent inhibition value for each well.
Each data point in FIG. 37 represents the mean AP activity in rat serum. […] Table 5: Rat 24-hour PD study results

[6] = plasma, read-out: Plasma AUC0-last
[7] = retina, read-out: Retina AUC0-last

COc1cc(C)c2[nH]ccc2c1CN1CCC2(C[C@H]1c1ccc(C(=O)O)cc1C(F)F)CC(F)(F)C2 [Example 1]
Kd [1]: 770 pM
t1/2 [1]: 0.8911 h
residence time [1]: 4630 s
IC50 [2]: < 2000 pM

Cc1cc(C2CC2)c(CN2CCC3(C[C@H]2c2ccc(C(=O)O)cc2)CC(F)(F)C3)c2cc[nH]c12 [Example 2]
Kd [1]: 380 pM
t1/2 [1]: 1.214 h
residence time [1]: 6310 s
IC50 [2]: < 2000 pM

COc1cc(C)c2[nH]ccc2c1CN1CCC2(C[C@H]1c1ccc(C(=O)O)cc1C)CC(F)(F)C2 [Example 3, (S)-4-(2,2-difluoro-7-((5-methoxy-7-methyl-1H-indol-4-yl)methyl)-7-azaspiro[3.5]nonan-6-yl)-3-methylbenzoic acid]
Kd [1]: 170 pM
t1/2 [1]: 1.188 h
residence time [1]: 6170 s
Post-slurry PLM/XRPD ([3]; natural evaporation, Acetone, Hydrobromic acid (22 µL), slurried in ethyl acetate): √, crystal form A of hydrobromide
Post-slurry PLM/XRPD ([3]; natural evaporation, Acetone, Hydrochloric acid (22 µL), slurried in ethyl acetate): √, high crystallinity, crystal form A of hydrochloride
Post-slurry PLM/XRPD ([3]; natural evaporation, Acetone, Methanesulphonic acid (22 µL), slurried in ethyl acetate): √, crystal form A of methanesulfonat e
Post-slurry PLM/XRPD ([3]; natural evaporation, Acetone, p-Toluenesulphonic acid (22 µL), slurried in ethyl acetate): √, crystal form A of p-toluenesulfonate
Post-slurry PLM/XRPD ([3]; natural evaporation, Methanol, Hydrochloric acid (22 µL), slurried in 2-methyltetrahydrofuran): √, crystal form B of hydrochloride
PLM/XRPD or slurry solvent ([3]; natural evaporation, solvent Acetone, Hydrobromic acid (22 µL)): ×, ethyl acetate
PLM/XRPD or slurry solvent ([3]; natural evaporation, solvent Acetone, Hydrochloric acid (22 µL)): ×, ethyl acetate
PLM/XRPD or slurry solvent ([3]; natural evaporation, solvent Acetone, Methanesulphonic acid (22 µL)): ×, ethyl acetate
PLM/XRPD or slurry solvent ([3]; natural evaporation, solvent Acetone, p-Toluenesulphonic acid (22 µL)): ×, ethyl acetate
PLM/XRPD or slurry solvent ([3]; natural evaporation, solvent Methanol, Adipic acid (22 µL)): √, crystal form A of adipate
PLM/XRPD or slurry solvent ([3]; natural evaporation, solvent Methanol, Fumaric acid (88 µL)): √, crystal form A of fumarate
PLM/XRPD or slurry solvent ([3]; natural evaporation, solvent Methanol, Hippuric acid (55 µL)): √, crystal form A of hippurate
PLM/XRPD or slurry solvent ([3]; natural evaporation, solvent Methanol, Hydrobromic acid (22 µL)): √, high crystallinity
PLM/XRPD or slurry solvent ([3]; natural evaporation, solvent Methanol, Hydrochloric acid (22 µL)): ×, 2-methyltetrahydrofuran
PLM/XRPD or slurry solvent ([3]; natural evaporation, solvent Methanol, Malonic acid (22 µL)): √, crystal form A of malonate
PLM/XRPD or slurry solvent ([3]; natural evaporation, solvent Methanol, Oxalic acid (22 µL)): √, crystal form A of oxalate
PLM/XRPD or slurry solvent ([3]; natural evaporation, solvent Methanol, Succinic acid (22 µL)): √, crystal form A of succinate
Characterization result ([3]; Hydrobromic acid): Crystal form A of hydrobromide
Characterization result ([3]; Hydrochloric acid): Crystal form A of hydrochloride
Characterization result ([3]; Methanesulphonic acid): Crystal form A of methanesulfonate
PLM/XRPD or slurry solvent ([3]; solvent Ethyl acetate, Hydrobromic acid (22 µL), Clear → Suspension (slurried)): √, crystal form A of hydrobromide
PLM/XRPD or slurry solvent ([3]; solvent Toluene, Hydrobromic acid (22 µL), Clear → Suspension (slurried)): √, crystal form A of hydrobromide
AUC(0-t) [4, 6]: 12.7 µM·h
AUC(0-t) [4, 7]: 0.796 µM·h
half-life [4]: 22.2 h
Plasma C3b/iC3b/C3c (1 x 10^6) (AP complement activation): 210.25 ^ns 1 x 10^6
inhibitory effects in the ex vivo PD assay in rats ([5]; 2 mg/kg oral, 50% serum): sustained inhibitory effects
inhibition at 2 mg/kg [5]: 57.5%
IC50 [2]: < 2000 pM

CCO[C@H]1CCN(Cc2c(OC)cc(C)c3[nH]ccc23)[C@H](c2ccc(C(=O)O)cc2)C1 [Iptacopan, reference compound]
AUC(0-t) [4, 6]: 13.5 µM·h
AUC(0-t) [4, 7]: 0.141 µM·h
half-life [4]: 5.3 h
inhibition at 2 mg/kg [5]: -3%
